These results are taken from US8314098B2, “Pyrazolo-pyrimidine compounds” (Ajinomoto Co., Inc., priority 2008, dated 2012).

A word on the IC50: it is the concentration needed to halve the response being measured.

Molecules are shown by their SMILES.

The subject of this test is IL-12p70 (the complex of IL-12p35 and p40). Put plainly: IL-12p70 production inhibition in macrophages derived from mouse abdomen (IFN-γ/SAC stimulation, ELISA). It is filed as cell-based. The following applies: Macrophage; mouse (Balb/c) abdominal macrophages, 100 ng/mL mouse IFN-γ + 0.05% SAC, overnight; TFA salts tested where prepared as such; read-out: IL-12p70-Inhibitory Activity IC50. On the procedure:
One milliliter each of a 3% (w/v) thioglycolate solution was intraperitoneally administered to mice (female Balb/c mice), the abdominal cells of each mouse were recovered after 5 or 6 days from the administration of the thioglycolate solution and the adhesive cells were collected and used in the exaluation procedures. To a culture medium containing such adhesive cells, there were added 100 ng/mL of mouse interferon-γ and a 0.05% (v/v) liquid containing killed cells derived from Staphylococcus aureus Cowan I strain (SAC) and a candidate compound and then the mixture was cultivated overnight. After the completion of the cultivation, the survival ratios were determined, there were quantitatively determined the quantities of IL-12p70 (the complex of IL-12p35 and p40) and IL-12p40 or TNF-α according to the ELISA assays while making use of the recovered supernatant of the culture medium and the 50% production-inhibitory concentration (IC50) was calculated for each case (see Table 1 and Tables 1-9 for IL-12p70 and TNF-α and Tables 1 to 10 for IL-12p40).
(In an ELISA, binding on a coated surface is turned into a signal by an enzyme label.)
As to `Clc1ccccc1/C=N/Nc1cc(N2CCOCC2)n2nc(-c3ccccc3)cc2n1` [Compound 25, N-(2-chloro-benzylidene)-N′-(7-morpholin-4-yl-2-phenyl-pyrazolo[1,5-a]pyrimidin-5-yl)-hydrazine], the IC50 was 150 nM.

For `Clc1cccc(/C=N/Nc2cc(N3CCOCC3)n3nc(-c4ccccc4)cc3n2)c1` [Compound 26, N-(3-chloro-benzylidene)-N′-(7-morpholin-4-yl-2-phenyl-pyrazolo[1,5-a]pyrimidin-5-yl)-hydrazine], the IC50 was 120 nM.

Regarding `COc1ccccc1/C=N/Nc1cc(N2CCOCC2)n2nc(-c3ccccc3)cc2n1` [Compound 28, N-(2-methoxy-benzylidene)-N′-(7-morpholin-4-yl-2-phenyl-pyrazolo[1,5-a]pyrimidin-5-yl)-hydrazine], the IC50 was found to be 160 nM.

As to `COc1ccc(/C=N/Nc2cc(N3CCOCC3)n3nc(-c4ccccc4)cc3n2)cc1` [Compound 30, N-(4-methoxy-benzylidene)-N′-(7-morpholin-4-yl-2-phenyl-pyrazolo[1,5-a]pyrimidin-5-yl)-hydrazine], the IC50 came out at 180 nM.

As for `COCCN(CCOC)c1ccc(-c2cc3nc(N/N=C/c4cccc(C)c4)cc(N4CCOCC4)n3n2)cc1` [Compound 32, N-{2-[4-bis-(2-methoxy-ethyl-amino)-phenyl]-7-morpholin-4-yl-pyrazolo[1,5-a]pyrimidin-5-yl}-N′-(3-methyl-benzylidene)-hydrazine], the IC50 was 9.6 nM.

On to `Cc1cccc(/C=N/Nc2cc(N3CCOCC3)n3nc(-c4ccco4)cc3n2)c1` [Compound 33, N-(2-furan-2-yl-7-morpholin-4-yl-pyrazolo[1,5-a]-pyrimidin-5-yl)-N′-(3-methyl-benzylidene)-hydrazine], for which the IC50 was 17 nM.

Regarding `Cc1cccc(/C=N/Nc2cc(N3CCOCC3)n3nc(OCCOc4ccccc4)cc3n2)c1` [Compound 37, N-(3-methyl-benzylidene)-N′-[7-morpholin-4-yl-2-(2-phenoxy-ethoxy)-pyrazolo[1,5-a]pyrimidin-5-yl]-hydrazine], the IC50 turned out to be 110 nM.

For the compound `Cc1ccc(/C=N/Nc2cc(N3CCOCC3)n3nc(-c4ccccc4)cc3n2)o1` [Compound 54, N-(5-methyl-furan-2-yl-methylidene)-N′-(7-morpholin-4-yl-2-phenyl-pyrazolo[1,5-a]pyrimidin-5-yl)-hydrazine], the IC50 worked out at 300 nM.

In the case of `Cc1ccccc1/C=N/Nc1cc(N2CCOCC2)n2nc(-c3ccccc3)cc2n1` [Compound 57, N-(2-methyl-benzylidene)-N′-(7-morpholin-4-yl-2-phenyl-pyrazolo[1,5-a]pyrimidin-5-yl)-hydrazine], the IC50 is 420 nM.

Regarding `C(=N\Nc1cc(N2CCOCC2)n2nc(-c3ccccc3)cc2n1)/c1cccs1` [Compound 61, N-(7-morpholin-4-yl-2-phenyl-pyrazolo[1,5-a]pyrimidin-5-yl)-N′-(thiophen-2-yl-methylidene)-hydrazine], the IC50 is 370 nM.

As to `Cc1ccsc1/C=N/Nc1cc(N2CCOCC2)n2nc(-c3ccccc3)cc2n1` [Compound 62, N-(3-methyl-thiophen-2-yl-methylidene)-N′-(7-morpholin-4-yl-2-phenyl-pyrazolo[1,5-a]pyrimidin-5-yl)-hydrazine], the IC50 came out at 320 nM.

Turning to `CC(/C=N/Nc1cc(N2CCOCC2)n2nc(-c3ccccc3)cc2n1)=C\c1ccccc1` [Compound 63, N-(2-methyl-3-phenyl-alkylidene)-N′-(7-morpholin-4-yl-2-phenyl-pyrazolo[1,5-a]pyrimidin-5-yl)-hydrazine], the IC50 was 320 nM.

As to `CN(Cc1ccccc1)Nc1cc(N2CCOCC2)n2nc(-c3ccccc3)cc2n1` [Compound 66, N-benzyl-N-methyl-N′-(7-morpholin-4-yl-2-phenyl-pyrazolo[1,5-a]pyrimidin-5-yl)-hydrazine], the IC50 is 330 nM.

In the case of `C(=N\Nc1cc(N2CCOCC2)n2nc(-c3ccccc3)cc2n1)/c1cccc2[nH]ccc12` [Compound 72, N-(1H-indol-4-yl-methylidene)-N′-(7-morpholin-4-yl-2-phenyl-pyrazolo[1,5-a]pyrimidin-5-yl)-hydrazine], the IC50 is 190 nM.

As for `Cc1nc2sccn2c1/C=N/Nc1cc(N2CCOCC2)n2nc(-c3ccccc3)cc2n1` [Compound 75, N-(6-methy-imidazo[2,1-b]thiazole-5-methylidene)-N′-(7-morpholin-4-yl-2-phenyl-pyrazolo[1,5-a]pyrimidin-5-yl)-hydrazine], the IC50 amounted to 290 nM.

As to `Cc1[nH]c2ccccc2c1/C=N/Nc1cc(N2CCOCC2)n2nc(-c3ccccc3)cc2n1` [Compound 78, N-(2-methyl-1H-indol-3-yl-methylidene)-N′-(7-morpholin-4-yl-2-phenyl-pyrazolo[1,5-a]pyrimidin-5-yl)-hydrazine], the IC50 worked out at 440 nM.

As for `C(=N\Nc1cc(N2CCOCC2)n2nc(-c3ccc(N4CCOCC4)nc3)cc2n1)/c1c[nH]c2ccccc12` [Compound 86, N-(1H-indol-3-yl-methylidene)-N′-[7-morpholin-4-yl-2-(6-morpholin-4-yl-pyridin-3-yl)-pyrazolo[1,5-a]pyrimidin-5-yl]-hydrazine], the IC50 turned out to be 1.8 nM.

As for `COc1ccc(/C=N/Nc2cc(N3CCOCC3)n3nc(-c4ccncc4)cc3n2)cc1C` [Compound 92, N-(4-methoxy-3-methyl-benzylidene)-N′-(7-morpholin-4-yl-2-pyridin-4-yl-pyrazolo[1,5-a]pyrimidin-5-yl)-hydrazine], the IC50 is 44 nM.

Take `C(=N\Nc1cc(N2CCOCC2)n2nc(-c3cnccn3)cc2n1)/c1c[nH]c2ccccc12` [Compound 93, N-(1H-indol-3-yl-methylidene)-N′-(7-morpholin-4-yl-2-pyrazin-2-yl-pyrazolo[1,5-a]pyrimidin-5-yl)-hydrazine]: the IC50 amounted to 6.5 nM.

Turning to `Cc1cccc(/C=N/Nc2cc(N3CCOCC3)n3nc(-c4cc(C)on4)cc3n2)c1` [Compound 98, N-(3-methyl-benzylidene)-N′-[2-(5-methylisoxazol-3-yl)-7-morpholin-4-yl-pyrazolo[1,5-a]pyrimidin-5-yl]-hydrazine], the IC50 was found to be 26 nM.

Consider `Cc1cc(-c2cc3nc(N/N=C/c4c[nH]c5ccccc45)cc(N4CCOCC4)n3n2)no1` [Compound 99, N-(1H-indol-3-yl-methylidene)-N′-[2-(5-methylisoxazol-3-yl)-7-morpholin-4-yl-pyrazolo[1,5-a]pyrimidin-5-yl]-hydrazine], for which the IC50 worked out at 16 nM.

On to `Cc1cccc(/C=N/Nc2cc(N3CCOCC3)n3nc(N4CCCCC4)cc3n2)c1` [Compound 100, N-(3-methyl-benzylidene)-N-(7-morpholin-4-yl-2-piperidin-1-yl-pyrazolo[1,5-a]pyrimidin-5-yl)-hydrazine], for which the IC50 was 360 nM.

In the case of `C(=N\Nc1cc(N2CCOCC2)n2nc(N3CCCCC3)cc2n1)/c1c[nH]c2ccccc12` [Compound 101, N-(1H-indol-3-yl-methylidene)-N-(7-morpholin-4-yl-2-piperidin-1-yl-pyrazolo[1,5-a]pyrimidin-5-yl)-hydrazine], the IC50 was found to be 380 nM.

`C(=N\Nc1cc(N2CCOCC2)n2nc(-c3cccnc3)cc2n1)/c1ccc2[nH]ccc2c1` [Compound 103, N-(1H-indol-5-yl-methylidene)-N-(7-morpholin-4-yl-2-pyridin-3-yl-pyrazolo[1,5-a]pyrimidin-5-yl)-hydrazine]: the IC50 amounted to 160 nM.

With `Cc1[nH]c2ccc(/C=N/Nc3cc(N4CCOCC4)n4nc(-c5cccnc5)cc4n3)cc2c1C` [Compound 105, N-(2,3-dimethyl-1H-indol-5-yl-methylidene)-N-(7-morpholin-4-yl-2-pyridin-3-yl-pyrazolo[1,5-a]pyrimidin-5-yl)-hydrazine], the IC50 amounted to 89 nM.

Turning to `Cc1[nH]c2ccc(/C=N/Nc3cc(N4CCOCC4)n4nc(-c5cnccn5)cc4n3)cc2c1C` [Compound 107, N-(2,3-dimethyl-1H-indol-5-yl-methylidene)-N-(7-morpholin-4-yl-2-pyrazin-2-yl-pyrazolo[1,5-a]pyrimidin-5-yl)-hydrazine], the IC50 worked out at 170 nM.

Regarding `C(=N\Nc1cc(N2CCOCC2)n2nc(-c3ccncc3)cc2n1)/c1csc2ccccc12` [Compound 109, N-benzo[b]thiophen-3-yl-methylidene-N′-(7-morpholin-4-yl-2-pyridin-4-yl-pyrazolo[1,5-a]pyrimidin-5-yl)-hydrazine], the IC50 was 490 nM.

Turning to `Cc1cccc(/C=N/Nc2cc(N3CCOCC3)n3nc(-c4ccc(C)nc4)cc3n2)c1` [Compound 110, N-(3-methyl-benzylidene)-N′-[2-(6-methyl-pyridin-3-yl)-7-morpholin-4-yl-pyrazolo[1,5-a]pyrimidin-5-yl]-hydrazine], the IC50 was 7.3 nM.

Regarding `Cc1ccc(-c2cc3nc(N/N=C/c4coc5ccccc45)cc(N4CCOCC4)n3n2)cn1` [Compound 111, N-benzofuran-3-yl-methylidene-N′-[2-(6-methyl-pyridin-3-0)-7-morpholin-4-yl-pyrazolo[1,5-a]pyrimidin-5-yl]-hydrazine], the IC50 was 37 nM.

Consider `Cc1ccc(-c2cc3nc(N/N=C/c4c[nH]c5ccccc45)cc(N4CCOCC4)n3n2)cn1` [Compound 112, N-(1H-indol-3-yl-methylidene)-N′-[2-(6-methyl-pyridin-3-yl)-7-morpholin-4-yl-pyrazolo[1,5-a]pyrimidin-5-yl]-hydrazine], for which the IC50 came to 7.5 nM.

Consider `C(=N\Nc1cc(N2CCOCC2)n2nc(-c3ccncc3)cc2n1)/c1ccc2c(c1)OCCO2` [Compound 113, N-(2,3-dihydro-benzo[1,4]dioxin-6-yl-methylidene)-N′-(7-morpholin-4-yl-2-pyridin-4-yl-pyrazolo[1,5-a]pyrimidin-5-yl)-hydrazine], for which the IC50 came to 98 nM.
